Measurements: patent US6967200B2, “Remedies for cirrhosis” (Shionogi & Co., Ltd., priority 2000, dated 2005)
pIC50: −log10 of the molar value.

Molecular target: T1, Human type-X sPLA2 (Homo sapiens, UniProt O15496)
T1 construct: made in house; host or cells: CHO cells stably transfected with a pSVL SV40 late promoter expression vector; unpurified culture supernatant used as the enzyme source
T1 sequence (O15496 43-165): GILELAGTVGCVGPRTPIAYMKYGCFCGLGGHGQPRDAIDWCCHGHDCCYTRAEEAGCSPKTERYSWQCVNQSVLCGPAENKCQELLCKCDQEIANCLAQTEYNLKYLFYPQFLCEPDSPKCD
Experiment: type-X sPLA2 inhibition test (chromogenic assay, diheptanoylthio PC substrate)
Format: biochemical
Conditions: diheptanoylthio PC 1 mM, 30 min at 40° C., pH 7.5, absorbance at 405 nm
Source text: cDNA sequence encoding human type-X sPLA2 (Cupillard et al., J. Biol. Chem, 1997, 272, 15745-15752) was inserted into the downstream region of the promoter of pSVL SV40 Late Promoter Expression Vector (Amersham Pharmacia Biotech Inc.) that is an expression vector for mammalian cells. The obtained expression vector was transfected into the host CHO cells with a LipofectAMINE reagent (Gibco BRL Inc.) according to the manufacture's instruction to obtain the CHO cells stably expressing human type-X sPLA2.
In order to identify and evaluate an inhibitor of type-X sPLA2, the following chromogenic assay is utilized. This assay has been applied for high volume screening using a 96-well microtiterplate. A general explanation for this assay is described in “Analysis of Human Synovial Fluid Phospholipase A2 on Short Chain Phosphatidylcholine-Mixed Micelles: Development of a Spectrophotometric Assay Suitable for a Micortiterplate Reader” (Analytical Biochemistry, 204, pp 190-197, 1992 by Laure. J. Reynolds. Lori L. Hughes and Edward A. Dennis.
Human type-X sPLA2 was incubated (30 min at 40° C. (15 μl/well)) with diheptanoylthio PC (1 mM) in the presence of Triton X-100 (0.3 mM) and 5,5′-dithiobis(2-nitrobenzoic acid) (125 μM) in Tris-HCl buffer (25 mM, pH 7.5) containing CaCl2 (10 mM), KCl (100 mM), and bovine serum albumin (1.0 mg/mL). […]

pIC50: 8.30
Compound: NC(=O)C1=CCCc2c1c1c(OCC(=O)O)nccn1c2Cc1ccccc1 [Compound 7]
